Marks after values point to notes of the source that are not given here. Non-standard residues stand in square brackets, D forms with d.

One substance from patent US10844091B2 (priority 2017, dated 2020) can be followed below.

One experiment has as its system superoxide dismutase. Description: Superoxide dismutase activity in the brain of rat models with Alzheimer's disease. The class given is in vivo. Particulars: tetrapeptide 0.1 mg/kg. As to the method:
(§1) The drugs were administered daily, once a day.
Standard biochemical methods were used to determine the content and activity of antioxidant defense enzymes and products of lipid peroxidation: malonic dialdehyde (MDA) [Modern Biochemistry Methods/[edited by V. N. Orekhovich]; M. Medicine, 1977, 392 pp]; superoxide dismutase (SOD) [O. P. Makarevich Activity of superoxide dismutase in blood in the acute period of various diseases/O. P. Makarevich, P. P. Golikov//Lab. Science, 1983, No 6, pp 24-27]; catalase [Methods for the Determination of Catalase Activity/M. A. Korolyuk, L. I. Ivanova, I. G. Mayorova, et al//Lab. Science, 1988, No 1, pp 16-19]; and reduced glutathione [T. A. Kochetov A Practical Guide to Enzymology. M. Nauka, 1980, 280 pp].

For another experiment, the target named is acetylcholinesterase (Rattus norvegicus, UniProt P37136). The settings on record: donepezil 1 mg/kg, tetrapeptide 0.1 mg/kg. The method, then: (§2) Scopolamine was administered i.p. to the animals in all groups except for the control at a 1 mg/kg dose daily, once a day for 27 days. From the 28th day on, the animals in groups 2 and 3 were administered the comparator drug and the claimed preparation respectively over the course of 10 days. The drugs were administered daily, once a day.
acetylcholinesterase, sequence (P37136 32-614): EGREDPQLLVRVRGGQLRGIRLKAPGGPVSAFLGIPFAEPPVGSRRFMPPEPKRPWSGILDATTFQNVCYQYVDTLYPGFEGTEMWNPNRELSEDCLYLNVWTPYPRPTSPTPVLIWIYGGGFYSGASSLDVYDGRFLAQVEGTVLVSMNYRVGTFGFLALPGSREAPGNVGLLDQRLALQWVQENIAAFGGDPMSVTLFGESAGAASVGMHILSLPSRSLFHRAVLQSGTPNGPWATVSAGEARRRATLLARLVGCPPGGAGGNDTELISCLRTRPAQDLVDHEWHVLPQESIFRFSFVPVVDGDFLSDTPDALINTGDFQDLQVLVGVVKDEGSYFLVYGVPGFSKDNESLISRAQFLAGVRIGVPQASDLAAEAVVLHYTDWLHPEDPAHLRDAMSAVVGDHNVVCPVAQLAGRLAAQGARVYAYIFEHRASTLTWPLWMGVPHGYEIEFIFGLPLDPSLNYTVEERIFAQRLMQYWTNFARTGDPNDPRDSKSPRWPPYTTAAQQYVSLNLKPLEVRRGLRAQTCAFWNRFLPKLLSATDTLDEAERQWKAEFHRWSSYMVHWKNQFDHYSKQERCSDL
(§3) The tetrapeptides were administered i.n at a 0.1 mg/kg dose. The animals in the pathology group received 0.9% sodium chloride solution i.n. and i.p. as a placebo.
(§4) A procedure for the isolation of noradrenaline (together with adrenaline), dopamine, 5-hydroxy tryptamine and histamine from the same tissue sample using a single column of strongly acidic cation exchange resin 1C. […] Determination of ATP content in tissue//Methods for biochemical research/Edited by prof. M. I. Prokhorova, Leningrad, pub.

The subject of the next experiment is butyrylcholinesterase. Particulars: tetrapeptide 0.1 mg/kg. The method, then:
as §2, §3, §4

Experiment [1] can be described thus: Arteriovenous glucose difference in rat models with Alzheimer's disease. The settings on record: tetrapeptide 0.1 mg/kg; as a trend. The class given is in vivo. As to the method: as §1
The OF and EE tests were conducted on the 1st day, PST—on the 2nd day, CPAR—on the 1st and 10th day post treatment with the preparations. The CPAR proficiency criterium—remaining in the light area of the CPAR device during at least 180 sec. The antiamnesic action (AA) in the CPAR test was calculated using Butler's formula [K. S. Radionova. Original nootropic preparation Noopept ameliorates memory loss caused by the M- and N-choline receptor blockade in rats/K. S. Radionova, A. P. Bel'nik, R. U. Ostrovskaya//Bul experim. Biology and Medicine.—2008.—T.146, No 1.—pp 65-68]. After that, the animals were removed from the experiment by administering a narcotic, followed by decapitation. The brain was extracted and weighed, and the brain weight coefficient (BWC) was calculated. […] Glucose levels in whole arterial (common carotid artery) and venous (venous cerebral sinus) blood were determined by the glucose oxidase test, the difference in the arterial-venous glucose content was calculated (glucose consumption marker). The levels of average weight molecules—the toxic products of cell biodegradation damaged during the disease (nucleoside derivatives, peptoids, glucuronic acid salts, etc.) in the blood serum (AWM) were calculated [A. N. Kovalevsky. […]

The next experiment deals with ATP. Description: Brain ATP level in rat models with Alzheimer's disease. The class given is in vivo. Particulars: tetrapeptide 0.1 mg/kg; as a trend. The method, then:
as §1
1966, t. […] M. I. Prokhorova, Leningrad, pub. House LSU, 1982.—pp. 256-258].

Experiment [2] concerns intact animals and animals with reserpine-induced depression. Description: Open Field Test, intact animals and animals with reserpine-induced depression. The class given is in vivo, rat. The settings on record: for Emotional reactions and concomitant vegetative state (total number of grooming acts, fecal boluses, and urinations) / Orientation and exploratory activity (number of explored openings and upright positions) / Sum of all results / Locomotor activity (number of squares): imipramine 15 mg/kg i.p., tetrapeptide (LYS) 0.02 mg/kg i.n. The method, then:
The experiment was conducted on 16 white random-bred adult male rats weighing:
180-220 g. The antidepressant activity of tetrapeptide (LYS), a neuroprotector, at a 0.02 mg/kg dose intranasally (i.n.) was evaluated. […] The experiment was conducted in two stages. […] 25-30 min. prior to the start of the experiment, the animals were administered their respective drugs. The animals in the control group were administered 0.9% NaCl solution i.p. and i.n. in the volume equal to the volume of the medications. After that, the animals of all groups were placed in the open field (OF) for 3 min., and their locomotor (number of crossed squares), orientation, and exploratory (number of upright positions and explored openings) activity as well as their emotional reactions (fecal boluses, urination, grooming) were evaluated. The indicators of depression in the animals (latent immobilization period, the number of such instances, and their total duration) were evaluated in the Popsolt swim test (PST) over 6 min. In the next 2 days, all the medications were administered at the same dose once a day; the last administration—30 min before the depressogenic sympatholytics of reserpine. Reserpine was administered on the 3rd day (2nd stage of the experiment) at a 4 mg/kg dose i.p. (as a suspension stabilized with Tween-80). Animals in all 3 groups were evaluated 6-7 hr. later in the OF and PST.
Test results were statistically processed. When the data distribution was normal, the parametric Student's t-distribution test was applied, when it was absent, the non-parametric MannWhitney U-test was used. When processing the results in an alternative form (presence/absence of the indicator), Fisher's angular transformation φ was applied. Wilcoxon paired t-criterium test was used for the intra-group statistical evaluation of the changed in the animal test results prior and post simulated depression. The results were considered to be statistically significant when p<0.05.

[3] abbreviates: R - reserpine-induced depression.

As to “acetyl-D-Lys-Lys-Arg-Arg-amide (Ac-[dK]KRR-NH2; SMILES CC(=O)N[C@H](CCCCN)C(=O)N[C@@H](CCCCN)C(=O)N[C@@H](CCCNC(=N)N)C(=O)N[C@@H](CCCNC(=N)N)C(N)=O) [tetrapeptide (LYS), peptide acetyl-X-ARG-ARG-amide, X = D- and L-amino acid residues of lysine]”, the “increase of SOD activity compared to the pathology group” value in the experiment on superoxide dismutase is on record as 22%. In addition, in the experiment with acetylcholinesterase, the “AChE activity in synapsosomes and in the whole brain homogenate” value is “reduces”. In the experiment with butyrylcholinesterase, the “butyrylcholinesterase activity in the brain” value is reported as “significantly increases”. Moreover, in experiment [1], the “glucose utilization in the brain” value is recorded as “improved glucose utilization”. Also, in the experiment on ATP, the “brain ATP level” value is recorded as “increased ATP level”. Also, in experiment [2] (I - intact animals), the “Emotional reactions and concomitant vegetative state (total number of grooming acts, fecal boluses, and urinations)” value is reported as 1.8 ± 0.77^; the “Orientation and exploratory activity (number of explored openings and upright positions)” value is recorded as 5.8 ± 0.77; the “Sum of all results” value is 11.6 ± 2.49*^. Besides, the “Locomotor activity (number of squares)” value in experiment [2] (I - intact animals, 3 min) is on record as 4.0 ± 1.34*^. The “Locomotor activity (number of squares)” value in experiment [2] (R - reserpine-induced depression (4 mg/kg i.p.)) is on record as 3.4 ± 2.4. Moreover, in experiment [2] (setting [3]), the “Emotional reactions and concomitant vegetative state (total number of grooming acts, fecal boluses, and urinations)” value was 0.2 ± 0.2; the “Orientation and exploratory activity (number of explored openings and upright positions)” value is 4.6 ± 2.4; the “Sum of all results” value was found to be 8.2 ± 4.98. For the same substance, in experiment [2] (R vs I), the “Emotional reactions and concomitant vegetative state, % change reserpine-induced depression vs. intact animals” value is reported as “(−88.9%) ®”; the “Locomotor activity, % change reserpine-induced depression vs. intact animals” value is reported as “(−15.0%)”; the “Orientation and exploratory activity, % change reserpine-induced depression vs. intact animals” value is listed as “(−20.69%)”; the “Sum of all results, % change reserpine-induced depression vs. intact animals” value is given as “(−29.3%)”. In addition, in experiment [2] (reserpine-induced depression), the “decrease of emotional reaction level compared to intact animals” value is given as 9 times; the “reduction of locomotor activity (crossed squares) compared to intact animals” value is 15%; the “reduction of orientation and exploratory activity compared to intact animals” value was 20.7%; the “reduction of the sum of all types of activities compared to intact animals” value was 29.3%.
